Test results: patent US10517889B2, “Modulators of SMAD7 expression” (Ionis Pharmaceuticals, Inc., priority 2017, dated 2019)
Strand notation (5' to 3'): a small letter for the sugar, then the base; units joined by * are phosphorothioate-linked, units joined directly phosphodiester-linked; [ ] holds rarer units or linkages, { } end groups; capitals alone tell only the bases. e = 2'-O-(2-methoxyethyl) (MOE); [5mC] = 5-methylcytosine; d = 2'-deoxy (DNA)

System: human SMAD7 mRNA
Assay: Antisense inhibition of human SMAD7 mRNA expression in Hep3B cells by 5-10-5 MOE gapmers, single concentration, electroporation, RT-PCR (Example 1, Study 1 and 2)
Assay type: cell-based
Settings: Study 2, electroporation with 15,000 nM antisense oligonucleotide, 5-10-5 MOE gapmers targeting SEQ ID NO: 1 and 2
Summary of the method: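 Readout is percent SMAD7 mRNA inhibition versus untreated cells, measured by qRT-PCR (RTS5062) and corrected for total RNA by RIBOGREEN. Oligonucleotide, 5,000 nM or 15,000 nM, was delivered by electroporation into Hep3B cells at 20,000 per well. RNA was collected about 24 h later.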

Substance	% Inhibition	% inhibition of SMAD7 mRNA expression
771723 (antisense e[5mC]*e[5mC]*eA*eA*eG*dG*dT*dT*dA*d[5mC]*dA*dT*dA*d[5mC]*dA*eA*e[5mC]*e[5mC]*eT*eG) [compound 771723]	44%	
771405 (antisense eA*eG*e[5mC]*eG*eA*dA*d[5mC]*dA*dT*dG*dA*d[5mC]*d[5mC]*dT*d[5mC]*e[5mC]*eG*e[5mC]*eA*e[5mC]) [compound 771405]	25%	
771892 (antisense e[5mC]*eT*eG*eA*eA*dG*dT*dT*dT*d[5mC]*dT*d[5mC]*d[5mC]*dT*d[5mC]*e[5mC]*e[5mC]*eA*eT*e[5mC]) [compound 771892]	2%	
771485 (antisense eA*eA*eG*e[5mC]*e[5mC]*d[5mC]*dG*dT*d[5mC]*d[5mC]*dA*d[5mC]*dG*dG*d[5mC]*eT*eG*e[5mC]*eT*eG) [compound 771485]		15%
771787 (antisense eA*eA*eG*eA*eA*dG*dA*dA*dG*dG*dA*dG*d[5mC]*dT*d[5mC]*eA*eA*eA*e[5mC]*eT) [compound 771787]	27%	
771447 (eA*eA*e[5mC]*eA*e[5mC]*dA*dG*d[5mC]*d[5mC]*dT*d[5mC]*dT*dT*dG*dA*e[5mC]*eT*eT*e[5mC]*e[5mC]; antisense) [compound 771447]	19%	
771599 (antisense eG*e[5mC]*eA*eG*eG*dA*dA*dG*dG*dG*dA*dA*dT*dA*dA*eG*eA*e[5mC]*eA*eA) [compound 771599]		39%
771519 (antisense eA*eA*eA*eG*e[5mC]*dA*dA*dG*d[5mC]*dA*d[5mC]*dT*d[5mC]*dA*dG*eG*eA*eG*eG*eA) [compound 771519]		25%
771932 (antisense e[5mC]*eG*eA*eG*eG*dT*dG*d[5mC]*d[5mC]*d[5mC]*d[5mC]*d[5mC]*dA*dT*dG*e[5mC]*e[5mC]*eA*eG*eG) [compound 771932]	13%	
771879 (antisense eA*eG*eG*eA*e[5mC]*d[5mC]*d[5mC]*dA*dA*dA*dG*dG*d[5mC]*dA*dG*eA*e[5mC]*e[5mC]*e[5mC]*eT) [compound 771879]	23%	
771678 (antisense eT*eT*eA*eT*eT*dT*dT*dT*d[5mC]*dT*dT*dG*dT*dT*dT*eA*eT*eA*e[5mC]*eA) [compound 771678]		0%
771812 (antisense eT*eT*eA*eA*e[5mC]*d[5mC]*d[5mC]*d[5mC]*dT*dG*d[5mC]*d[5mC]*dG*dG*dA*e[5mC]*eT*eG*e[5mC]*e[5mC]) [compound 771812]	26%	
771843 (antisense e[5mC]*eG*e[5mC]*e[5mC]*eG*dG*d[5mC]*d[5mC]*d[5mC]*dA*d[5mC]*d[5mC]*dA*dA*d[5mC]*e[5mC]*eT*e[5mC]*eT*eG) [compound 771843]	17%	
771606 (antisense eG*eG*eG*e[5mC]*eT*dG*d[5mC]*d[5mC]*d[5mC]*d[5mC]*dG*dG*d[5mC]*dA*dG*e[5mC]*e[5mC]*e[5mC]*eT*eT) [compound 771606]		0%
771431 (eG*e[5mC]*e[5mC]*e[5mC]*e[5mC]*d[5mC]*dG*dG*d[5mC]*d[5mC]*dG*d[5mC]*dG*d[5mC]*d[5mC]*eG*eG*e[5mC]*eG*e[5mC]; antisense) [compound 771431]	37%	
771775 (antisense eA*eA*eT*eG*e[5mC]*d[5mC]*dA*dA*dA*dT*dG*d[5mC]*d[5mC]*d[5mC]*dA*eA*eA*eA*e[5mC]*eT) [compound 771775]	41%	
771401 (antisense eG*e[5mC]*eA*eG*eG*d[5mC]*dG*dA*d[5mC]*dA*dG*d[5mC]*dA*dG*d[5mC]*eA*eG*e[5mC]*eA*eG) [compound 771401]	21%	
771622 (antisense eA*eA*e[5mC]*eA*e[5mC]*dA*d[5mC]*dA*dG*dG*dA*dT*dG*dG*dG*eA*eG*e[5mC]*eA*eG) [compound 771622]		34%
771353 (antisense eT*eT*e[5mC]*e[5mC]*eA*dT*d[5mC]*d[5mC]*dA*dA*d[5mC]*dT*d[5mC]*dT*d[5mC]*eT*eT*eT*eG*e[5mC]) [compound 771353]	0%	
771708 (antisense eG*eG*eA*eT*eA*dA*dA*dA*dG*dG*dA*dA*dA*dG*dG*eA*eG*eT*eT*eT) [compound 771708]	0%	
771510 (antisense eA*eG*eT*eG*eT*dG*dG*d[5mC]*d[5mC]*dT*dG*d[5mC]*dT*d[5mC]*dA*eG*e[5mC]*eT*e[5mC]*eA) [compound 771510]		35%
771580 (antisense eA*eG*e[5mC]*eT*eT*dG*d[5mC]*d[5mC]*d[5mC]*dA*dG*dG*dT*dA*d[5mC]*eT*eG*e[5mC]*e[5mC]*eT) [compound 771580]		25%
771647 (antisense eG*eA*eG*eT*eG*dT*dA*dT*dG*dA*dG*dT*dT*dG*dT*eA*eG*eA*eA*eG) [compound 771647]		6%
771532 (antisense eA*eG*eA*eA*eG*dA*dA*dA*dA*d[5mC]*d[5mC]*dA*dA*d[5mC]*d[5mC]*eA*eA*e[5mC]*eA*eA) [compound 771532]		0%

Same assay, conditions: electroporation with 15,000 nM antisense oligonucleotide (Study 2), 5-10-5 MOE gapmers targeting SEQ ID NO: 1 and 2

Substance	% Inhibition of SMAD7 mRNA	% inhibition of SMAD7 mRNA expression
771512 (antisense eA*eG*eT*eA*eG*dT*dT*dT*dG*dA*dA*dG*dT*dG*dT*eG*eG*e[5mC]*e[5mC]*eT) [compound 771512]	34%	
771624 (antisense eT*eT*eA*eA*e[5mC]*dA*d[5mC]*dA*d[5mC]*dA*dG*dG*dA*dT*dG*eG*eG*eA*eG*e[5mC]) [compound 771624]	27%	0%
771560 (antisense e[5mC]*eT*eG*eA*e[5mC]*dA*dA*dG*dT*dG*dA*dA*dA*dT*dG*eA*eT*eG*eA*e[5mC]) [compound 771560]	0%	
771666 (antisense eA*e[5mC]*eT*eA*e[5mC]*dA*dA*dT*dG*d[5mC]*dT*dA*dA*dA*dT*eT*eT*e[5mC]*e[5mC]*eA) [compound 771666]		39%
771880 (antisense eT*e[5mC]*e[5mC]*e[5mC]*eT*dG*dG*dT*dT*dT*dT*dG*d[5mC]*dA*dG*eG*eT*eG*eG*eT) [compound 771880]	41%	
771832 (antisense eA*e[5mC]*e[5mC]*eT*eT*dT*d[5mC]*dA*d[5mC]*dG*dA*dA*d[5mC]*d[5mC]*dA*e[5mC]*eT*eT*eT*eT) [compound 771832]	31%	
771658 (antisense eA*eA*eT*eA*eG*d[5mC]*dT*dT*dA*dT*dG*dT*dT*dA*dA*eA*eG*eT*e[5mC]*eT) [compound 771658]		33%
771848 (antisense e[5mC]*e[5mC]*eA*e[5mC]*eA*d[5mC]*dA*dA*d[5mC]*d[5mC]*dA*dA*dA*dG*d[5mC]*eA*eG*eA*eA*eG) [compound 771848]	47%	

Same assay, conditions: electroporation, 5,000 nM, approximately 24 hours, relative to untreated control cells, gapmers targeting SEQ ID NO: 1 and 2

Substance	% inhibition of SMAD7 mRNA expression
771723 (antisense e[5mC]*e[5mC]*eA*eA*eG*dG*dT*dT*dA*d[5mC]*dA*dT*dA*d[5mC]*dA*eA*e[5mC]*e[5mC]*eT*eG) [compound 771723]	0%
771787 (antisense eA*eA*eG*eA*eA*dG*dA*dA*dG*dG*dA*dG*d[5mC]*dT*d[5mC]*eA*eA*eA*e[5mC]*eT) [compound 771787]	0%
771843 (antisense e[5mC]*eG*e[5mC]*e[5mC]*eG*dG*d[5mC]*d[5mC]*d[5mC]*dA*d[5mC]*d[5mC]*dA*dA*d[5mC]*e[5mC]*eT*e[5mC]*eT*eG) [compound 771843]	19%

Same assay, conditions: electroporation, 15,000 nM antisense oligonucleotide (Study 2), 5-10-5 MOE gapmers targeting SEQ ID NO: 1 and 2

Substance	% inhibition of SMAD7 mRNA expression
771512 (antisense eA*eG*eT*eA*eG*dT*dT*dT*dG*dA*dA*dG*dT*dG*dT*eG*eG*e[5mC]*e[5mC]*eT) [compound 771512]	0%
771897 (antisense e[5mC]*eT*e[5mC]*eT*e[5mC]*dA*dG*dG*dG*dT*d[5mC]*dT*d[5mC]*dA*dG*eT*eT*eT*eG*eA) [compound 771897]	44%
771721 (antisense e[5mC]*e[5mC]*e[5mC]*eA*eG*d[5mC]*dA*d[5mC]*dT*dG*dT*dG*dA*dT*dG*eT*e[5mC]*e[5mC]*eA*eG) [compound 771721]	43%
771834 (antisense eA*eA*e[5mC]*eA*eT*dA*dA*dA*dG*dT*dT*d[5mC]*dT*d[5mC]*dA*eA*eA*e[5mC]*eA*eG) [compound 771834]	25%
771560 (antisense e[5mC]*eT*eG*eA*e[5mC]*dA*dA*dG*dT*dG*dA*dA*dA*dT*dG*eA*eT*eG*eA*e[5mC]) [compound 771560]	0%
771858 (antisense e[5mC]*eT*eG*e[5mC]*e[5mC]*dA*dA*d[5mC]*dG*dG*d[5mC]*dA*d[5mC]*dA*dG*eT*e[5mC]*eA*eT*eA) [compound 771858]	31%
771491 (antisense eG*eG*e[5mC]*e[5mC]*e[5mC]*d[5mC]*dA*dG*d[5mC]*d[5mC]*d[5mC]*dT*dT*d[5mC]*dA*e[5mC]*eA*eA*eA*eG) [compound 771491]	39%
771880 (antisense eT*e[5mC]*e[5mC]*e[5mC]*eT*dG*dG*dT*dT*dT*dT*dG*d[5mC]*dA*dG*eG*eT*eG*eG*eT) [compound 771880]	29%
771832 (antisense eA*e[5mC]*e[5mC]*eT*eT*dT*d[5mC]*dA*d[5mC]*dG*dA*dA*d[5mC]*d[5mC]*dA*e[5mC]*eT*eT*eT*eT) [compound 771832]	11%
771372 (antisense eA*e[5mC]*eA*eA*eA*d[5mC]*d[5mC]*dA*d[5mC]*dA*d[5mC]*dA*dT*dT*d[5mC]*e[5mC]*eA*eA*eA*eA) [compound 771372]	37%
771848 (antisense e[5mC]*e[5mC]*eA*e[5mC]*eA*d[5mC]*dA*dA*d[5mC]*d[5mC]*dA*dA*dA*dG*d[5mC]*eA*eG*eA*eA*eG) [compound 771848]	36%

Same assay, conditions: electroporation, 15,000 nM, approximately 24 hours, relative to untreated control cells, gapmers targeting SEQ ID NO: 1 and 2

Substance	% inhibition of SMAD7 mRNA expression
771861 (antisense eA*eG*eA*eA*eA*dA*d[5mC]*dA*dG*d[5mC]*d[5mC]*d[5mC]*d[5mC]*d[5mC]*d[5mC]*e[5mC]*eA*eG*e[5mC]*eA) [compound 771861]	13%
771901 (antisense eA*eA*eA*eA*eT*dG*d[5mC]*d[5mC]*d[5mC]*dA*d[5mC]*d[5mC]*dA*dG*dT*e[5mC]*eT*eT*e[5mC]*e[5mC]) [compound 771901]	41%
771400 (antisense e[5mC]*eG*eA*e[5mC]*eA*dG*d[5mC]*dA*dG*d[5mC]*dA*dG*d[5mC]*dA*dG*e[5mC]*eA*eG*eG*eG) [compound 771400]	52%
771845 (antisense eT*eT*e[5mC]*e[5mC]*eA*dA*dG*d[5mC]*dA*d[5mC]*dG*dG*dA*dG*dT*e[5mC]*eA*eG*e[5mC]*e[5mC]) [compound 771845]	39%
771637 (antisense eT*eG*eG*eT*eA*d[5mC]*d[5mC]*dT*dT*dG*dG*dG*dT*dT*dA*eT*eG*eA*e[5mC]*eG) [compound 771637]	23%
